Assays:
Lin-CD24+CD49f^hi cells = assay: FACS quantification of MaSC-enriched CD24+CD49high population from mammary glands; format: in vivo, mouse; settings: MPA for 3 days
Description: (§1) a, Epithelial proliferation in mammary glands of control littermates and RANK^Δmam females 3 days after sham treatment and MPA implantation. Proliferation was determined by in situ Ki67 immunostaining. b,c, Marked increase of the stem cell-enriched CD24^+CD49^high population (MaSC) in MPA-treated mammary glands in control but not in RANK^Δmam mammary glands. b, Representative FACS profiles showing CD24 and CD49 expression of lineage negative (CD31^− (endothelial cells) CD45^− (hematopoietic cells) […] (erythroid cells)) of mammary MaSCs from MPA- or sham-treated 8-week old virgin females. c, Quantification of MaSC-enriched CD24^+CD49^high population from mammary glands of MPA- or sham-treated virgin RANK^Δmam and littermate control females. For all MaSCs experiments mice were treated with MPA for 3 days. n=4 per group+/−sem. *P<0.05; ***P<0.001 (Student's t-test).
(§2) Recently it has been reported that endogenous progesterone affects the numbers of Lin-CD24+CD49f^hi stem cells during pregnancy^15 and the estrous cycle^16. In both studies, the RANKL/RANK system was implicated based on in vivo whole body Ab blocking studies and RT-PCR expression, however, it was not known whether this is a direct effect of RANKL-RANK in mammary epithelial cells rather than a secondary effect. Therefore it was assayed whether progestins such as MPA can also expand Lin-CD24+CD49f^hi cells.

mammary epithelial cells = assay: Epithelial proliferation in mammary glands, in situ Ki67 immunostaining; format: in vivo, mouse
Description: as §1
At least 1000 mammary gland epithelial cells were counted per mouse. n=3 mice per genotype. **P<0.005; ***P<0.001 (Student's t-test). b, Quantification of in situ Ki67 immunostained cells per acinus from mammary glands of control littermate and RANK^Δmam females on day 3 after MPA s.c. implantation. […] At least 1000 cells were counted per mammary gland. n=3 per genotype. In b, and c, data are shown as percentage of acini/ducts with low (<20% of epithelial cells are Ki67^+), medium (20-80% of epithelial cells are Ki67^+) and high (>80% of epithelial cells are Ki67^+) numbers of proliferating cells+/−sem. ***P<0.001; *P<0.03 (Student's t-test). d, Epithelial proliferation in mammary glands of control littermates and RANK^Δmam females 1 day after i.p. injection of PBS or RANKL (1 μg). Proliferation was determined in situ Ki67 immunostaining. Magnifications ×40. e, Quantification of epithelial proliferation 1 day after i.p. injection of PBS or RANKL (1 μg). Mean percentages of Ki67 positive cells+/−sem are shown. *P<0.03; n=5 (Student's t-test).
For histological analysis, 5 μm sections were cut and stained with hematoxylin and eosin (H&E). Whole-mount staining of mammary glands was performed as described. For immunoperoxidase staining paraffin-embedded sections were […] and antigenic epitopes exposed using a 10 mM citrate buffer or microwaving. Sections were incubated with antibodies to cytokeratine 5, cytokeratine 14, E-cadherin, anti-Ki67 (Novocastra) and anti-active Caspase 3 (Cell Signaling) and visualized using peroxidase-conjugated secondary antibodies. Histomorphometric indices (proliferation and apoptosis) were calculated as the number of positive epithelial cells divided by the total number of epithelial cells, with no fewer than 1000 nuclei for Ki67 stainings and no fewer than 5000 cells for active Caspase 3 staining counted per section.
as §2

[1] = system: human SKBR3 breast cancer cells; assay: Western blotting of RANKL/RANK downstream signaling in SKBR3 cells; format: cell-based; settings: RANKL stimulation (1 μg/ml)
Description: a, Western blotting for phosphorylated (P) p65 NFκB, total p65 NFκB, phosphorylated (P) IκBα, total IκBα, phosphorylated (P) ERK1/2, total ERK1/2, phosphorylated (P) p38-MAPK, and p38-MAPK in human SKBR3 breast cancer cells in response to RANKL stimulation (1 μg/ml). Data are representative of 3 experiments. b, Growth curve of SKBR3 breast cancer cells cultured in normal growth medium (control, DMEM supplemented with 10% FCS) or in the presence of RANKL (1 μg/ml). Cell numbers were determined by counting live cells (trypan blue-exclusion) over 3 days. c, Onset of palpable mammary tumors in NFATc1^Δmam (n=10) and age matched littermate control (n=16) females treated with MPA pellets and DMBA. Data are shown as percentage of tumor free mice after the last DMBA challenge. No significant difference was found. d, Quantification of NFATc1 mRNA expression in purified mammary epithelial cells (MECs) and MPA-driven mammary tumors from NFATc1^Δmam and littermate control females. mRNA was determined by qRT-PCR. Data are shown as fold change compared to control (+/−sem). n=5 Per group. *P<0.05 (Student's t-test).
The human epithelial breast tumor cell line SKBR3 and primary non-transformed mouse mammary epithelial cells were left untreated or stimulated with recombinant murine RANKL^ref. 9. Adenocarcinomas were isolated from control and mutant mice and total protein lysates prepared. […]

Molecule	expansion of Lin-CD24+CD49f^hi cells (Lin-CD24+CD49f^hi cells; RANK^Δmam females)	expansion of Lin-CD24+CD49f^hi cells (Lin-CD24+CD49f^hi cells; control females)	MPA-induced proliferation of mammary epithelial cells (mammary epithelial cells; RANK^Δmam females)	acini with very low proliferation rates (Ki67) (mammary epithelial cells; RANK^Δmam females, day 3 after MPA s.c. implantation)	acini with signs of medium to high proliferation (Ki67) (mammary epithelial cells; control females, day 3 after MPA s.c. implantation)	proliferation of mammary epithelial cells (mammary epithelial cells; wild type population, MPA treatment)	NFκB, p38-MAPKs and ERK activation [1]	proliferation of mammary gland epithelial cells (mammary epithelial cells; nulliparous females, 1 day after i.p. injection of RANKL (1 μg))
CC(=O)O[C@]1(C(C)=O)CC[C@H]2[C@@H]3C[C@H](C)C4=CC(=O)CC[C@]4(C)[C@H]3CC[C@@]21C [MPA, medroxyprogesterone acetate]	did not occur	two-fold expansion	significantly reduced	more than 60%	~80%	triggers massive proliferation of mammary epithelial cells		
RANKL: Receptor Activator of NF-κB Ligand; recombinant murine RANKL used for stimulation (protein, UniProt O35235 139-316, looked up) Tumor necrosis factor ligand …: FSGAPAMMEGSWLDVAQRGKPEAQPFAHLTINAASIPSGSHKVTLSSWYHDRGWAKISNMTLSNGKLRVNQDGFYYLYANICFRHHETSGSVPTDYLQLMVYVVKTSIKIPSSHNLMKGGSTKNWSGNSEFHFYSINVGGFFKLRAGEEISIQVSNPSLLDPDQDATYFGAFKVQDID							induced NFκB, p38-MAPKs and ERK activation	triggered proliferation of mammary gland epithelial cells

From patent publication US20130316374A1, “BREAST CANCER DIAGNOSTICS” (IMBA - INSTITUT FUR MOLEKULARE BIOTECHNOLOGIE GMBH, priority 2010, published 2013)
